According to the supplement of paper PMC10307832:

What follows are cell lines tested with CC(C)(C)c1nc(-c2cccc(NS(=O)(=O)c3c(F)cccc3F)c2F)c(-c2ccnc(N)n2)s1 [Dabrafenib] + CC(=O)Nc1cccc(-n2c(=O)n(C3CC3)c(=O)c3c(Nc4ccc(I)cc4F)n(C)c(=O)c(C)c32)c1 [Trametinib] (partner 0.02 µM) (assay: relative viability (nuclei count vs DMSO), 5 days (fraction); higher = more cells survive). Conditions: first compound 0.3 µM.
In short: (§1)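 After 5 days of treatment, lung cancer cells in 1536-well plates were fixed and stained in a single step (final 0.05% Triton X-100, 1% formaldehyde, 1 ug/ml Hoechst) and their nuclei counted on 4× images. Treatment had been applied by pin tool the day after seeding as one drug alone or as a fixed anchor-drug dose with five library-drug doses (not always all listed) in √10 steps. Relative viability is the nuclei count of treated wells divided by that of vehicle wells, and values are medians of duplicate plates.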
Work on LC-2-ad yielded a relative viability of 0.992. For 201T, the relative viability was 0.751. NCI-H1666 showed a relative viability of 0.885. NCI-H2023 gave a relative viability of 0.663. Work on NCI-H322M yielded a relative viability of 0.532. Work on HARA yielded a relative viability of 1.

Each cell line was assayed with CC(C)(C)c1nc(-c2cccc(NS(=O)(=O)c3c(F)cccc3F)c2F)c(-c2ccnc(N)n2)s1 [Dabrafenib] + CC(C)C[C@H](NC(=O)[C@H](Cc1ccccc1)NC(=O)c1cnccn1)B(O)O [Bortezomib] (partner 0.002 µM) in the same assay as above. Conditions: first compound 0.003 µM.
In short: as §1
For LU99A, the relative viability was 1.16. In the case of EKVX, the relative viability was 0.77. COR-L23 showed a relative viability of 1.06. NCI-H1437 showed a relative viability of 0.299. With RERF-LC-KJ the relative viability was 1.02. With NCI-H460 the relative viability was 1.28. Work on H3255 yielded a relative viability of 0.703. SW 1573 gave a relative viability of 1.11. NCI-H838 showed a relative viability of 0.74. With NCI-H3122 the relative viability was 1.04. NCI-H1915 showed a relative viability of 0.975. NCI-H1975 was tested, and the relative viability was 0.333. Work on NCI-H2087 yielded a relative viability of 0.814. NCI-H661 showed a relative viability of 0.647. NCI-H1993 showed a relative viability of 1.2. For PC-3 [JPC-3], the relative viability was 0.745. For NCI-H2009, the relative viability was 0.342. With NCI-H520 the relative viability was 0.584. Work on LXF-289 yielded a relative viability of 0.949. LC-2-ad showed a relative viability of 1.04. For 201T, the relative viability was 1.08. Work on NCI-H1666 yielded a relative viability of 0.806. Cell Line NCI-H2023 has a relative viability of 0.78. Work on HARA yielded a relative viability of 1.17.

Same assay, conditions: first compound 0.009487 µM
Cell Line LU99A has a relative viability of 0.99. Cell Line EKVX has a relative viability of 1.1. Work on COR-L23 yielded a relative viability of 1.15. Work on NCI-H1437 yielded a relative viability of 0.529. RERF-LC-KJ gave a relative viability of 1.33. With NCI-H1734 the relative viability was 0.936. In the case of BEN, the relative viability was 0.936. For NCI-H460, the relative viability was 1.06. With H3255 the relative viability was 0.858. For SK-LU-1, the relative viability was 1.12. Cell Line NCI-H23 has a relative viability of 0.95. Work on SW 1573 yielded a relative viability of 1.16. Cell Line NCI-H838 has a relative viability of 0.973. For EPLC-272H, the relative viability was 0.945. Cell Line NCI-H3122 has a relative viability of 1.01. NCI-H1915 was tested, and the relative viability was 0.99. With NCI-H727 the relative viability was 0.848. NCI-H1975 showed a relative viability of 0.432. HCC-366 showed a relative viability of 1.05. NCI-H2087 gave a relative viability of 0.752. In the case of LCLC-97TM1, the relative viability was 0.643. Cell Line NCI-H661 has a relative viability of 0.868. NCI-H2405 showed a relative viability of 0.91. For NCI-H1993, the relative viability was 1.46. Work on PC-3 [JPC-3] yielded a relative viability of 0.9. For NCI-H2009, the relative viability was 1.06. NCI-H2347 gave a relative viability of 1.2. Cell Line NCI-H520 has a relative viability of 0.59. Cell Line LXF-289 has a relative viability of 1.01. In the case of LC-2-ad, the relative viability was 1.03. With 201T the relative viability was 1.07. In the case of NCI-H2023, the relative viability was 1.09. Cell Line NCI-H322M has a relative viability of 1.26. In the case of HARA, the relative viability was 1.16.

Same assay, conditions: first compound 0.03 µM
With LU99A the relative viability was 1.15. For EKVX, the relative viability was 0.969. COR-L23 gave a relative viability of 0.91. NCI-H1437 showed a relative viability of 0.518. RERF-LC-KJ showed a relative viability of 1.05. Cell Line NCI-H1734 has a relative viability of 0.549. NCI-H460 gave a relative viability of 1.14. H3255 gave a relative viability of 0.997. NCI-H23 showed a relative viability of 0.861. Work on SW 1573 yielded a relative viability of 1.13. In the case of NCI-H838, the relative viability was 0.417. For EPLC-272H, the relative viability was 0.954. With NCI-H3122 the relative viability was 1.12. NCI-H1915 was tested, and the relative viability was 0.899. Cell Line NCI-H727 has a relative viability of 0.882. NCI-H1975 showed a relative viability of 0.374. Work on HCC-366 yielded a relative viability of 0.794. In the case of NCI-H2087, the relative viability was 0.564. In the case of LCLC-97TM1, the relative viability was 0.782. NCI-H661 gave a relative viability of 0.437. For NCI-H2405, the relative viability was 0.766. Work on NCI-H1993 yielded a relative viability of 1.31. With PC-3 [JPC-3] the relative viability was 0.773. NCI-H2009 gave a relative viability of 0.907. In the case of NCI-H520, the relative viability was 0.476. Cell Line LXF-289 has a relative viability of 1.18. LC-2-ad gave a relative viability of 0.969. 201T showed a relative viability of 1.06. NCI-H1666 gave a relative viability of 0.957. Work on NCI-H2023 yielded a relative viability of 1.04. HARA was tested, and the relative viability was 1.

Same assay, conditions: first compound 0.09487 µM
Cell Line LU99A has a relative viability of 1.1. EKVX showed a relative viability of 0.891. Cell Line COR-L23 has a relative viability of 0.898. Work on NCI-H1437 yielded a relative viability of 0.534. RERF-LC-KJ gave a relative viability of 1.05. NCI-H1734 gave a relative viability of 0.757. In the case of BEN, the relative viability was 0.696. NCI-H460 was tested, and the relative viability was 1.05. H3255 gave a relative viability of 0.642. SK-LU-1 showed a relative viability of 0.607. For NCI-H23, the relative viability was 0.643. With SW 1573 the relative viability was 0.996. Work on NCI-H838 yielded a relative viability of 0.715. EPLC-272H showed a relative viability of 0.631. NCI-H3122 was tested, and the relative viability was 1.06. For NCI-H1915, the relative viability was 0.584. For NCI-H727, the relative viability was 0.795. For NCI-H1975, the relative viability was 0.49. Cell Line HCC-366 has a relative viability of 0.945. In the case of NCI-H2087, the relative viability was 0.648. Work on LCLC-97TM1 yielded a relative viability of 0.162. In the case of NCI-H661, the relative viability was 0.719. In the case of NCI-H2405, the relative viability was 0.867. Cell Line NCI-H1993 has a relative viability of 1.24. Work on PC-3 [JPC-3] yielded a relative viability of 0.875. Cell Line NCI-H2009 has a relative viability of 0.554. In the case of NCI-H520, the relative viability was 0.544. With LXF-289 the relative viability was 0.969. Cell Line LC-2-ad has a relative viability of 0.918. In the case of 201T, the relative viability was 1.11. NCI-H1666 gave a relative viability of 0.859. NCI-H2023 showed a relative viability of 0.977. Work on NCI-H322M yielded a relative viability of 1.3. With HARA the relative viability was 1.06.

Same assay, conditions: first compound 0.3 µM
With LU99A the relative viability was 0.887. For EKVX, the relative viability was 1.12. COR-L23 was tested, and the relative viability was 0.915. In the case of NCI-H1437, the relative viability was 0.516. RERF-LC-KJ gave a relative viability of 1.13. Cell Line NCI-H1734 has a relative viability of 0.828. Work on BEN yielded a relative viability of 0.996. Work on NCI-H460 yielded a relative viability of 1.08. In the case of H3255, the relative viability was 1.09. For SK-LU-1, the relative viability was 0.871. NCI-H23 showed a relative viability of 1.07. SW 1573 was tested, and the relative viability was 1.17. With NCI-H838 the relative viability was 1.09. Work on EPLC-272H yielded a relative viability of 1.18. NCI-H3122 gave a relative viability of 1.1. Work on NCI-H1915 yielded a relative viability of 0.502. Work on NCI-H727 yielded a relative viability of 0.873. In the case of NCI-H1975, the relative viability was 0.429. With HCC-366 the relative viability was 1.08. Work on NCI-H2087 yielded a relative viability of 0.761. For LCLC-97TM1, the relative viability was 0.469. Cell Line NCI-H661 has a relative viability of 0.789. NCI-H2405 was tested, and the relative viability was 0.959. With NCI-H1993 the relative viability was 1.7. PC-3 [JPC-3] showed a relative viability of 0.857.
